The experiment has as its target human FXR (NR1H4) (Homo sapiens (Human), UniProt Q96RI1). The experiment in a line: Human FXR (NR1H4) Assay (Gal4 promoter driven luciferase reporter, Indigo Bioscience kit).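 On Efficacy (%): 100% equals the efficacy of CDCA; efficacy normalized to CDCA set as 100%.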 The class given is cell-based. The note with it: for EC50: Human FXR (NR1H4) Assay, potency ranges; for Emax: read-out: Efficacy (%). Summed up: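 CHO reporter cells expressing human FXR with an FXR-responsive luciferase reporter, treated with compound doses at 0.2% DMSO. Incubation lasted 22 h at 37 °C before luciferase detection reagent was added. Luminescence was then read.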
On the technique in general: Reporter assays use an easily measured gene product as a stand-in for the process of interest.

Chain of human FXR (NR1H4) (Q96RI1 whole entry, the tested form may be a part): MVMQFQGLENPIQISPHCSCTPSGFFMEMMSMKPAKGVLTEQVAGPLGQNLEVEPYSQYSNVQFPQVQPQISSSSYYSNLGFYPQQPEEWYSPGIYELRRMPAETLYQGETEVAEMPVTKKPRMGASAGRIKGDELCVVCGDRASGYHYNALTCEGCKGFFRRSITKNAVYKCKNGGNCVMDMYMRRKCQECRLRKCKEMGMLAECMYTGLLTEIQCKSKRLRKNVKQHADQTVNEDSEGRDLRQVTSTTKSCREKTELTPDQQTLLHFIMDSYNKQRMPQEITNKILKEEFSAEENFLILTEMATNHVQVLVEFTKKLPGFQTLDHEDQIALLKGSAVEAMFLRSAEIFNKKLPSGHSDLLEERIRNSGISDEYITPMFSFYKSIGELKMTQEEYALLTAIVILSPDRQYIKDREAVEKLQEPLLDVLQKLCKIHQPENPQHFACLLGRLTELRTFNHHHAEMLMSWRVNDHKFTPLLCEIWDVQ

Broadly, the EC50 is the concentration at which the effect is half-maximal. `CC[C@H]1[C@@H](O)[C@@H]2[C@H](CC[C@]3(C)[C@@H]([C@H](C)CCOC(=O)NS(=O)(=O)c4ccc(F)c(F)c4)CC[C@@H]23)[C@@]2(C)CC[C@@H](O)C[C@@H]12` [Example 102]: the EC50 is < 100 nM and the Emax came out at 235%.
The like results for `CC[C@H]1[C@@H](O)[C@@H]2[C@H](CC[C@]3(C)[C@@H]([C@H](C)CCOC(=O)NCC(C)(C)C)CC[C@@H]23)[C@@]2(C)CC[C@@H](O)C[C@@H]12` [Example 190] were, in that order, 100 to 1000 nM and 410%.
The like results for `CC[C@H]1[C@@H](O)[C@@H]2[C@H](CC[C@]3(C)[C@@H]([C@H](C)COC(=O)NS(=O)(=O)c4ccc(-c5ncccn5)cc4)CC[C@@H]23)[C@@]2(C)CC[C@@H](O)C[C@@H]12` [Example 36] were, in that order, < 100 nM and 205%.
The like results for `CC[C@H]1[C@@H](O)[C@@H]2[C@H](CC[C@]3(C)[C@@H]([C@H](C)COC(=O)N4CCCCC4)CC[C@@H]23)[C@@]2(C)CC[C@@H](O)C[C@@H]12` [Example 201] were, in that order, 100 to 1000 nM and 1%.
Regarding `CC[C@H]1[C@@H](O)[C@@H]2[C@H](CC[C@]3(C)[C@@H]([C@H](C)COC(=O)NS(=O)(=O)c4ccc(N5CCCCCC5)cc4)CC[C@@H]23)[C@@]2(C)CC[C@@H](O)C[C@@H]12` [Example 22], the EC50 was < 100 nM and the Emax came out at 262%.
The like results for `CC[C@H]1[C@@H](O)[C@@H]2[C@H](CC[C@]3(C)[C@@H]([C@H](C)CCOC(=O)NS(=O)(=O)N4CCCC4)CC[C@@H]23)[C@@]2(C)CC[C@@H](O)C[C@@H]12` [Example 51] were, in that order, < 100 nM and 218%.
The like results for `CC[C@H]1[C@@H](O)[C@@H]2[C@H](CC[C@]3(C)[C@@H]([C@H](C)CCOC(=O)NS(=O)(=O)C4CCC4)CC[C@@H]23)[C@@]2(C)CC[C@@H](O)C[C@@H]12` [Example 104-i] were, in that order, < 100 nM and 314%.
The like results for `CC[C@H]1[C@@H](O)[C@@H]2[C@H](CC[C@]3(C)[C@@H]([C@H](C)CCCOC(=O)N4CCCCC4)CC[C@@H]23)[C@@]2(C)CC[C@@H](O)C[C@@H]12` [Example 165] were, in that order, 1000 to 10000 nM and 158%.
For `CC[C@H]1[C@@H](O)[C@@H]2[C@H](CC[C@]3(C)[C@@H]([C@H](C)CCOC(=O)N4CC[C@H](CO)C4)CC[C@@H]23)[C@@]2(C)CC[C@@H](O)C[C@@H]12` [Example 211], the EC50 is < 100 nM and the Emax came out at 198%.
The like results for `CC[C@H]1[C@@H](O)[C@@H]2[C@H](CC[C@]3(C)[C@@H]([C@H](C)COC(=O)NS(=O)(=O)c4ccc(N5CCOCC5)nc4)CC[C@@H]23)[C@@]2(C)CC[C@@H](O)C[C@@H]12` [Example 15] were, in that order, < 100 nM and 197%.
The like results for `CC[C@H]1[C@@H](O)[C@@H]2[C@H](CC[C@]3(C)[C@@H]([C@H](C)CCOC(=O)N4CC(CO)C4)CC[C@@H]23)[C@@]2(C)CC[C@@H](O)C[C@@H]12` [Example 214] were, in that order, < 100 nM and 194%.
`CC[C@H]1[C@@H](O)[C@@H]2[C@H](CC[C@]3(C)[C@@H]([C@H](C)CCOC(=O)N4CCC(CO)CC4)CC[C@@H]23)[C@@]2(C)CC[C@@H](O)C[C@@H]12` [Example 202]: the 50% effective concentration (EC50) is 100 to 1000 nM and the Emax was 393%.
The like results for `CC[C@H]1[C@@H](O)[C@@H]2[C@H](CC[C@]3(C)[C@@H]([C@H](C)CCOC(=O)N4CCN(c5ccccc5OC)CC4)CC[C@@H]23)[C@@]2(C)CC[C@@H](O)C[C@@H]12` [Example 170] were, in that order, < 100 nM and 283%.
For `CC[C@H]1[C@@H](O)[C@@H]2[C@H](CC[C@]3(C)[C@@H]([C@H](C)COC(=O)NS(=O)(=O)c4cnc5ccccc5c4)CC[C@@H]23)[C@@]2(C)CC[C@@H](O)C[C@@H]12` [Example 24], the EC50 is < 100 nM and the Emax is 193%.
The like results for `CC[C@H]1[C@@H](O)[C@@H]2[C@H](CC[C@]3(C)[C@@H]([C@H](C)CCOC(=O)NCC4CCCCC4)CC[C@@H]23)[C@@]2(C)CC[C@@H](O)C[C@@H]12` [Example 188] were, in that order, 100 to 1000 nM and 459%.
Regarding `CC[C@H]1[C@@H](O)[C@@H]2[C@H](CC[C@]3(C)[C@@H]([C@H](C)COC(=O)NS(=O)(=O)c4cccc(-c5ncco5)c4)CC[C@@H]23)[C@@]2(C)CC[C@@H](O)C[C@@H]12` [Example 44-i], the EC50 fell in the range of 100 to 1000 nM and the Emax turned out to be 210%.
In the case of `CC[C@H]1[C@@H](O)[C@@H]2[C@H](CC[C@]3(C)[C@@H]([C@H](C)COC(=O)NS(=O)(=O)c4cccc(OC(C)(C)C)c4)CC[C@@H]23)[C@@]2(C)CC[C@@H](O)C[C@@H]12` [Example 29], the half-maximal effective concentration (EC50) lay in the range of 100 to 1000 nM and the Emax was 186%.
The like results for `CC[C@H]1[C@@H](O)[C@@H]2[C@H](CC[C@]3(C)[C@@H]([C@H](C)CCOC(=O)NC(C)(C)C)CC[C@@H]23)[C@@]2(C)CC[C@@H](O)C[C@@H]12` [Example 192] were, in that order, 1000 to 10000 nM and 186%.
`CC[C@H]1[C@@H](O)[C@@H]2[C@H](CC[C@]3(C)[C@@H]([C@H](C)CCOC(=O)NS(=O)(=O)c4ccc5c(c4)OCCO5)CC[C@@H]23)[C@@]2(C)CC[C@@H](O)C[C@@H]12` [Example 90]: the concentration giving a half-maximal response (EC50) is < 100 nM and the Emax is 225%.
As to `CC[C@H]1[C@@H](O)[C@@H]2[C@H](CC[C@]3(C)[C@@H]([C@H](C)CCOC(=O)N4CCC[C@@H](CO)C4)CC[C@@H]23)[C@@]2(C)CC[C@@H](O)C[C@@H]12` [Example 204], the EC50 is < 100 nM and the Emax amounted to 310%.
The like results for `CC[C@H]1[C@@H](O)[C@@H]2[C@H](CC[C@]3(C)[C@@H]([C@H](C)COC(=O)NS(=O)(=O)c4ccc(-n5ccnc5)nc4)CC[C@@H]23)[C@@]2(C)CC[C@@H](O)C[C@@H]12` [Example 44-m] were, in that order, < 100 nM and 206%.
Take `CC[C@H]1[C@@H](O)[C@@H]2[C@H](CC[C@]3(C)[C@@H]([C@H](C)COC(=O)NS(=O)(=O)c4ccc(Oc5ccccc5)cc4)CC[C@@H]23)[C@@]2(C)CC[C@@H](O)C[C@@H]12` [Example 31]: the half-maximal effective concentration (EC50) is 100 to 1000 nM and the Emax was determined as 207%.
The like results for `CC[C@H]1[C@@H](O)[C@@H]2[C@H](CC[C@]3(C)[C@@H]([C@H](C)CCOC(=O)NC4CCCCC4)CC[C@@H]23)[C@@]2(C)CC[C@@H](O)C[C@@H]12` [Example 127] were, in that order, 100 to 1000 nM and 308%.
For the compound `CC[C@H]1[C@@H](O)[C@@H]2[C@H](CC[C@]3(C)[C@@H]([C@H](C)COC(=O)NS(=O)(=O)c4ccc(-n5cccn5)cc4)CC[C@@H]23)[C@@]2(C)CC[C@@H](O)C[C@@H]12` [Example 37], the concentration giving a half-maximal response (EC50) is < 100 nM and the Emax came out at 207%.
With `CC[C@H]1[C@@H](O)[C@@H]2[C@H](CC[C@]3(C)[C@@H]([C@H](C)CCOC(=O)NS(=O)(=O)c4ccc(OC)c(OC)c4)CC[C@@H]23)[C@@]2(C)CC[C@@H](O)C[C@@H]12` [Example 87], the half-maximal effective concentration (EC50) fell in the range of 100 to 1000 nM and the Emax was 274%.
Take `CC[C@H]1[C@@H](O)[C@@H]2[C@H](CC[C@]3(C)[C@@H]([C@H](C)CCOC(=O)NCC(=O)O)CC[C@@H]23)[C@@]2(C)CC[C@@H](O)C[C@@H]12` [Example 157]: the EC50 was in the range of 1000 to 10000 nM and the Emax stood at 178%.
`CC[C@H]1[C@@H](O)[C@@H]2[C@H](CC[C@]3(C)[C@@H]([C@H](C)CCOC(=O)NC4(C)CC4)CC[C@@H]23)[C@@]2(C)CC[C@@H](O)C[C@@H]12` [Example 135]: the concentration for a half-maximal effect (EC50) was in the range of 100 to 1000 nM and the Emax stood at 224%.
Consider `CC[C@H]1[C@@H](O)[C@@H]2[C@H](CC[C@]3(C)[C@@H]([C@H](C)COC(=O)NS(=O)(=O)c4ccc(-c5ccccc5)s4)CC[C@@H]23)[C@@]2(C)CC[C@@H](O)C[C@@H]12` [Example 10], for which the concentration for a half-maximal effect (EC50) was < 100 nM and the Emax is 259%.
The like results for `CC[C@H]1[C@@H](O)[C@@H]2[C@H](CC[C@]3(C)[C@@H]([C@H](C)COC(=O)NS(=O)(=O)c4ccc(-c5ccncc5)cc4)CC[C@@H]23)[C@@]2(C)CC[C@@H](O)C[C@@H]12` [Example 35] were, in that order, 100 to 1000 nM and 152%.
The like results for `CC[C@H]1[C@@H](O)[C@@H]2[C@H](CC[C@]3(C)[C@@H]([C@H](C)COC(=O)N4CCC4)CC[C@@H]23)[C@@]2(C)CC[C@@H](O)C[C@@H]12` [Example 200] were, in that order, 1000 to 10000 nM and 7%.
For `CC[C@H]1[C@@H](O)[C@@H]2[C@H](CC[C@]3(C)[C@@H]([C@H](C)CCOC(=O)NS(=O)(=O)Cc4ccccc4)CC[C@@H]23)[C@@]2(C)CC[C@@H](O)C[C@@H]12` [Example 56], the EC50 was < 100 nM and the Emax stood at 326%.
As for `CC[C@H]1[C@@H](O)[C@@H]2[C@H](CC[C@]3(C)[C@@H]([C@H](C)COC(=O)NS(=O)(=O)c4ccc(-c5ccc(C(C)(C)C)cc5)cc4)CC[C@@H]23)[C@@]2(C)CC[C@@H](O)C[C@@H]12` [Example 34], the EC50 is 100 to 1000 nM and the Emax worked out at 186%.
With `CC[C@H]1[C@@H](O)[C@@H]2[C@H](CC[C@]3(C)[C@@H]([C@H](C)CCOC(=O)NS(=O)(=O)c4cnn(C)c4)CC[C@@H]23)[C@@]2(C)CC[C@@H](O)C[C@@H]12` [Example 82], the EC50 was 1000 to 10000 nM and the Emax is 294%.

These data come from US10457703B2, “Bile acid derivatives as FXR/TGR5 agonists and methods of use thereof” (ENANTA PHARMACEUTICALS, INC., priority 2015, dated 2019).
